Laboratory results: paper PMC6272684, “Synthesis, Antiproliferative and Antifungal Activities of 1,2,3-Triazole-Substituted Carnosic Acid and Carnosol Derivatives” (Molecules, 2015)

Legend:
C. albicans ATCC 10231 = experiment: Antifungal broth microdilution (CLSI M27-A3), growth inhibition; type: cell-based, Candida albicans; settings: for MIC50 (minimum concentration to inhibit 50% of fungal growth), C. albicans: C. albicans ATCC 10231
Protocol: (§1) The antifungal properties of compounds 1–24 against two clinical important fungal species, C. albicans ATCC 10231 and C. neoformans ATCC 32264 were investigated. Results were expressed as the percentages of inhibition of each fungus in the range 250–3.9 μg∙mL^−1 by using the standardized microbroth dilution method M-27A3 of Clinical and Laboratory Standards Institute which assures reliable and reproducible results.
(§2) For the antifungal evaluation, standardized strains from the American Type Culture Collection (ATCC), Rockville, MD, USA, were used. The microorganisms included yeasts (Candida albicans ATCC 10231 and Cryptococcus neoformans ATCC 32264). Strains were grown on Sabouraud-chloramphenicol agar slants for 48 h at 30 °C, maintained on slopes of Sabouraud-dextrose agar (SDA, Oxoid), and subcultured every 15 days to prevent pleomorphic transformations. Inocula of cell or spore suspensions were obtained according to reported procedures and adjusted to 1–5 × 10^3 cells/spores with colony forming units (CFU)/mL [29].
(§3) Broth microdilution techniques were performed in 96-well microplates according to the Clinical and Laboratory Standards Institute Reference Method for Broth Dilution Antifungal Susceptibility Testing of Yeasts, Approved Standard M27-A3 [29]. For the assay, compound test wells (CTWs) were prepared with stock solutions of each compound in DMSO (maximum concentration ≤1%), diluted with RPMI-1640, to final concentrations of 250–3.9 μg∙mL^−1. An inoculum suspension (100 μL) was added to each well (final volume in the well = 200 μL). A growth control well (GCW) (containing medium, inoculum, and the same amount of DMSO used in a CTW, but compound-free) and a sterility control well (SCW) (sample, medium, and sterile water instead of inoculum) were included for each fungus tested. Microtiter trays were incubated in a moist, dark chamber at 30 °C for 48 h for both yeasts. Microplates were read in a VERSA Max microplate reader (Molecular Devices, Sunnyvale, CA, USA). Amphotericin B (Sigma-Aldrich) was used as positive control. Tests were performed in triplicate. Reduction of growth for each compound concentration was calculated as follows: % of inhibition = 100 − (OD 405 CTW − OD 405 SCW)/(OD 405 GCW − OD 405 SCW). The means ± SEM were the results of triplicate tests. Three endpoints were defined from the assay explained above and the dose-response curves. Minimum Inhibitory concentration (MIC) resulting in total fungal growth inhibition was named MIC100 while MIC50 was defined as the minimum concentration that inhibits 50% of the fungal growth.

C. neoformans ATCC 32264 = experiment: as above; type: cell-based, Cryptococcus neoformans; settings: for MIC50 (minimum concentration to inhibit 50% of fungal growth), C. neoformans: C. neoformans ATCC 32264
Protocol: as §1, §2, §3

Structure (SMILES) | Inhibition percentage against C. albicans ATCC 10231 (C. albicans ATCC 10231; 3.9 μg∙mL^−1, 48 h) [%] | Inhibition percentage against C. albicans ATCC 10231 (C. albicans ATCC 10231; 7.8 μg∙mL^−1, 48 h) [%] | Inhibition percentage against C. albicans ATCC 10231 (C. albicans ATCC 10231; 15.6 μg∙mL^−1, 48 h) [%] | Inhibition percentage against C. albicans ATCC 10231 (C. albicans ATCC 10231; 62.5 μg∙mL^−1, 48 h) [%] | Inhibition percentage against C. albicans ATCC 10231 (C. albicans ATCC 10231; 125 μg∙mL^−1, 48 h) [%] | Inhibition percentage against C. albicans ATCC 10231 (C. albicans ATCC 10231; 250 μg∙mL^−1, 48 h) [%] | Inhibition percentage against C. albicans ATCC 10231 (C. albicans ATCC 10231; 31. μg∙mL^−1, 48 h) [%] | MIC50 (minimum concentration to inhibit 50% of fungal growth), C. albicans (C. albicans ATCC 10231) [µg/mL] | Antifungal activity against C. albicans (in words) (C. albicans ATCC 10231; at the assayed concentrations (250–3.9 μg∙mL^−1)) | Inhibition percentage against C. neoformans ATCC 32264 (C. neoformans ATCC 32264; 3.9 μg∙mL^−1, 48 h) [%] | Inhibition percentage against C. neoformans ATCC 32264 (C. neoformans ATCC 32264; 7.8 μg∙mL^−1, 48 h) [%] | Inhibition percentage against C. neoformans ATCC 32264 (C. neoformans ATCC 32264; 15.6 μg∙mL^−1, 48 h) [%] | Inhibition percentage against C. neoformans ATCC 32264 (C. neoformans ATCC 32264; 31.2 μg∙mL^−1, 48 h) [%] | Inhibition percentage against C. neoformans ATCC 32264 (C. neoformans ATCC 32264; 62.5 μg∙mL^−1, 48 h) [%] | Inhibition percentage against C. neoformans ATCC 32264 (C. neoformans ATCC 32264; 125 μg∙mL^−1, 48 h) [%] | Inhibition percentage against C. neoformans ATCC 32264 (C. neoformans ATCC 32264; 250 μg∙mL^−1, 48 h) [%] | MIC50 (minimum concentration to inhibit 50% of fungal growth), C. neoformans (C. neoformans ATCC 32264) [µg/mL]
CC(C)c1cc2c(c(OC(=O)CCc3cn(CSc4ccccc4)nn3)c1OC(=O)CCc1cn(CSc3ccccc3)nn1)C13CCCC(C)(C)C1CC2OC3=O (stereo not drawn) [Compound 17, (7β)-11,12-O-(3-(((1-phenylthio)methyl)-1H-1,2,3-triazol-4-yl)-propanoyloxy)-7,20-epoxyabieta-8,11,13-trien-20-one] | 0.0 | 2.8 ± 0.6 | 4.8 ± 1.0 | 11.5 ± 0.7 | 21.2 ± 0.2 | 42.3 ± 0.7 | 6.7 ± 1.1 | >250 | weak effect | 0.0 | 0.0 | 0.0 | 0.0 | 0.0 | 11.4 ± 1.2 | 41.1 ± 1.3 | >250
CC(C)c1cc2c(c(OC(=O)CCCc3cn(Cc4ccc(Br)cc4)nn3)c1OC(=O)CCCc1cn(Cc3ccc(Br)cc3)nn1)C13CCCC(C)(C)C1CC2OC3=O (stereo not drawn) [Compound 22, (7β)-11,12-O-(4-(1-(4-bromobenzyl)-1H-1,2,3-triazol-4-yl)-butanoyloxy)-7,20-epoxyabieta-8,11,13-trien-20-one] | 0.0 | 2.9 ± 0.7 | 5.1 ± 0.4 | 7.0 ± 1.0 | 10.1 ± 0.8 | 12.5 ± 2.2 | 5.9 ± 0.2 | >250 | – | 0.0 | 4.7 ± 0.8 | 4.8 ± 0.2 | 7.6 ± 0.9 | 28.5 ± 1.3 | 52.3 ± 2.3 | – | 125
COC(=O)C12CCCC(C)(C)C1CCc1cc(C(C)C)c(OC(=O)CCc3cn(Cc4ccc(Br)cc4)nn3)c(OC(=O)CCc3cn(Cc4ccc(Br)cc4)nn3)c12 (stereo not drawn) [Compound 13, Methyl(11,12-O-(3-(1-(4-bromobenzyl)-1H-1,2,3-triazol-4-yl)-propanoyloxy)-abieta-8,11,13-triene)-20-oate] | 0.0 | 0.6 ± 0.1 | 1.3 ± 0.3 | 6.7 ± 0.1 | 10.7 ± 0.3 | 17.6 ± 0.2 | 4.3 ± 0.4 | >250 | – | 5.8 ± 0.6 | 10.0 ± 1.0 | 13.3 ± 0.3 | 13.7 ± 0.6 | 16.3 ± 1.1 | 16.8 ± 1.8 | 25.7 ± 0.5 | >250
COC(=O)C12CCCC(C)(C)C1CCc1cc(C(C)C)c(OC(=O)CCCc3cn(Cc4ccc([N+](=O)[O-])cc4)nn3)c(OC(=O)CCCc3cn(Cc4ccc([N+](=O)[O-])cc4)nn3)c12 (stereo not drawn) [Compound 16, Methyl(11,12-O-(4-(1-(4-nitrobenzyl)-1H-1,2,3-triazol-4-yl)-butanoyloxy)-abieta-8,11,13-triene)-20-oate] | 0.0 | 0.8 ± 0.1 | 2.3 ± 0.1 | 7.2 ± 0.1 | 11.7 ± 0.5 | 21.1 ± 2.4 | 3.4 ± 0.5 | >250 | – | 0.0 | 3.5 ± 0.4 | 5.0 ± 0.4 | 7.9 ± 0.1 | 14.5 ± 0.2 | 35.5 ± 0.4 | 36.9 ± 0.8 | >250
COC(=O)C12CCCC(C)(C)C1CCc1cc(C(C)C)c(OC(=O)CCCc3cn(Cc4ccccc4)nn3)c(OC(=O)CCCc3cn(Cc4ccccc4)nn3)c12 (stereo not drawn) [Compound 12, Methyl(11,12-O-(4-(1-benzyl-1H-1,2,3-triazol-4-yl)-butanoyloxy)-abieta-8,11,13-triene)-20-oate] | 3.4 ± 0.3 | 3.6 ± 0.4 | 5.6 ± 1.9 | 14.9 ± 1.1 | 27.9 ± 0.1 | 50.0 ± 5.0 | 9.3 ± 2.6 | 250 | – | 0.0 | 0.0 | 7.7 ± 1.6 | 9.6 ± 0.8 | 17.3 ± 0.2 | 67.5 ± 0.7 | 63.1 ± 2.1 | 125
COC(=O)C12CCCC(C)(C)C1CCc1cc(C(C)C)c(OC(=O)CCc3cn(Cc4ccc([N+](=O)[O-])cc4)nn3)c(OC(=O)CCc3cn(Cc4ccc([N+](=O)[O-])cc4)nn3)c12 (stereo not drawn) [Compound 15, Methyl(11,12-O-(3-(1-(4-nitrobenzyl)-1H-1,2,3-triazol-4-yl)-propanoyloxy)-abieta-8,11,13-triene)-20-oate] | 0.0 | 0.0 | 2.6 ± 0.3 | 8.2 ± 0.3 | 15.2 ± 2.8 | 33.4 ± 2.7 | 3.0 ± 1.1 | >250 | – | 0.0 | 0.0 | 10.0 ± 0.6 | 13.0 ± 1.4 | 15.5 ± 2.0 | 22.0 ± 2.7 | 45.4 ± 3.0 | >250
